IC50 data for 26 compounds are collected here from ChEMBL document CHEMBL4334530, “Glucoconjugated Monoterpene Indole Alkaloids from Uncaria rhynchophylla” (J Nat Prod, 2019).

Where a name gives a salt, the structure may show the parent alone.

Test [1] relates to HepG2. The test can be described thus: Cytotoxicity against human HepG2 cells assessed as cell growth inhibition measured after 48 hrs by MTT assay. In kind it is functional, cell-based. The conditions noted are these: HepG2, 48 h. On the technique in general: Tetrazolium dyes change colour on reduction, which living cells bring about.
The test system of test [2] is A549. In words: Cytotoxicity against human A549 cells assessed as cell growth inhibition measured after 48 hrs by MTT assay. In kind it is functional, cell-based. The conditions noted are these: A549, 48 h.
The subject of test [3] is MCF7. In words: Cytotoxicity against human MCF7 cells assessed as cell growth inhibition measured after 48 hrs by MTT assay. In kind it is functional, cell-based. The conditions noted are these: MCF7, 48 h.
Test [4] deals with Acetylcholinesterase (Electrophorus electricus, UniProt O42275). The test can be described thus: Inhibition of electric eel AChE using acetylthiocholine iodide as substrate preincubated for 20 mins followed by substrate addition measured for 30 mins by Ellman's method.

The IC50 is the midpoint of a concentration-inhibition curve.

Chain of Acetylcholinesterase (O42275 whole entry): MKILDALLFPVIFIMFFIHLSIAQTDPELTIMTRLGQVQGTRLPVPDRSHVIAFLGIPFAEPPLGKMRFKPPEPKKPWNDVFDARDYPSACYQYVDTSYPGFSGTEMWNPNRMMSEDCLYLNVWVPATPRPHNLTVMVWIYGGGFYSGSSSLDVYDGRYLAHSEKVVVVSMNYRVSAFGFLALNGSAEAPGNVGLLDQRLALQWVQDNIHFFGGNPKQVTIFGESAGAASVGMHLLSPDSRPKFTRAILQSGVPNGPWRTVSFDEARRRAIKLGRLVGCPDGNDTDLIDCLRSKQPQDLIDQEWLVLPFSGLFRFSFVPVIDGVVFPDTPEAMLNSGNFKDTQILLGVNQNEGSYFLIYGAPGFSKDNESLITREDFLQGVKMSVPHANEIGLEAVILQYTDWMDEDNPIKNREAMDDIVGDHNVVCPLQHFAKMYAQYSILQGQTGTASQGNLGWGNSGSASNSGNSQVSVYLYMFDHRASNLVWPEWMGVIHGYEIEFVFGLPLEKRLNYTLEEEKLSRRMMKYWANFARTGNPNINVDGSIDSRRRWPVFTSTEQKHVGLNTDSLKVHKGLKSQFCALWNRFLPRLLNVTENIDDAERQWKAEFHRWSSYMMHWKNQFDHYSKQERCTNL

As to `C=C[C@H]1[C@H](O[C@@H]2O[C@H](CO)[C@@H](O)[C@H](O)[C@H]2O)OC=C2C(=O)N3Cc4c([nH]c5cc(O)ccc5c4=O)[C@H]3C[C@H]21`, the IC50 in test [1], in test [2] and in test [3] was over 80 µM throughout.

Take `C=C[C@H]1[C@H](O[C@@H]2O[C@H](CO)[C@@H](O)[C@H](O)[C@H]2O)OC=C2C(=O)N3CCc4c([nH]c5ccccc45)[C@@H]3C[C@H]21`: the IC50 in test [1], in test [2] and in test [3] was over 80 µM throughout.

Turning to `C=C[C@H]1[C@H](O[C@@H]2O[C@H](CO)[C@@H](O)[C@H](O)[C@H]2O)OC=C2C(=O)N3[C@H](C(=O)O)Cc4c([nH]c5ccccc45)[C@@H]3C[C@H]21`, the IC50 in test [1], in test [2] and in test [3] was over 80 µM each time.

As to `C=C[C@H]1[C@H](O[C@@H]2O[C@H](CO)[C@@H](O)[C@H](O)[C@H]2O)OC=C(C(=O)OC)[C@H]1C[C@@H]1N[C@H](C(=O)O)Cc2c1[nH]c1ccccc21`, the IC50 in test [1], in test [2] and in test [3] was over 80 µM in each case.

As for `C=C[C@H]1[C@H](O[C@@H]2O[C@H](CO)[C@@H](O)[C@H](O)[C@H]2O)OC=C2C(=O)N3CC[C@@]4(C(=O)Nc5cc(O)ccc54)[C@H]3C[C@H]21`, the IC50 in test [1], in test [2] and in test [3] was over 80 µM each time.

For `C=C[C@H]1[C@H](O[C@@H]2O[C@H](CO)[C@@H](O)[C@H](O)[C@H]2O)OC=C2C(=O)N3CCc4c([nH]c5ccccc45)[C@H]3C[C@H]21`, the half-inhibitory concentration (IC50) in test [1], in test [2] and in test [3] was over 80 µM each time.

As for `C=C[C@H]1[C@H](O[C@@H]2O[C@H](CO)[C@@H](O)[C@H](O)[C@H]2O)OC=C(C(=O)OC)[C@H]1Cc1nc(C(=O)OC)cc2c1[nH]c1ccccc12`, the IC50 in test [1], in test [2] and in test [3] was over 80 µM each time.

Consider `C=C[C@H]1[C@H](O[C@@H]2O[C@H](CO)[C@@H](O)[C@H](O)[C@H]2O)OC=C2C(=O)N3CCc4c([nH]c5ccc(O)cc45)[C@@H]3C[C@H]21`, for which the IC50 in test [1], in test [2] and in test [3] was over 80 µM each time.

Consider `COC(=O)C1=CO[C@@H](O[C@@H]2O[C@H](CO)[C@@H](O)[C@H](O)[C@H]2O)[C@H]2[C@@H]1C[C@H]1c3[nH]c4ccccc4c3CCN1[C@H]2CO`, for which the IC50 in test [1], in test [2] and in test [3] was over 80 µM in each case.

For the compound `O=C1C2=CO[C@@H](O[C@@H]3O[C@H](CO)[C@@H](O)[C@H](O)[C@H]3O[C@@H]3O[C@H](CO)[C@@H](O)[C@H](O)[C@H]3O)[C@H]([C@H](O)CO)[C@@H]2C[C@@H]2c3[nH]c4cc(O[C@@H]5O[C@H](CO)[C@@H](O)[C@H](O)[C@H]5O)ccc4c3CCN12`, the concentration for half-maximal inhibition (IC50) in test [1], in test [2] and in test [3] was over 80 µM throughout.

For the compound `C=C[C@H]1COC(=O)C2=CN3CCc4c([nH]c5cccc(O[C@@H]6O[C@H](CO)[C@@H](O)[C@H](O)[C@H]6O)c45)[C@@H]3C[C@H]21`, the IC50 was over 80 µM in test [1], over 80 µM in test [2], over 80 µM in test [3] and 10.5 µM in test [4].

Consider `C=C[C@H]1[C@H](O[C@@H]2O[C@H](CO)[C@@H](O)[C@H](O)[C@H]2O)OC=C(C(=O)OC)[C@H]1C[C@@H]1N[C@H](C(=O)OC)Cc2c1[nH]c1ccccc21`, for which the IC50 in test [1], in test [2] and in test [3] was over 80 µM throughout.

Regarding `C=C[C@H]1[C@H](O[C@@H]2O[C@H](CO)[C@@H](O)[C@H](O)[C@H]2O[C@@H]2O[C@H](CO)[C@@H](O)[C@H](O)[C@H]2O)OC=C2C(=O)N3CCc4c([nH]c5ccccc45)[C@H]3C[C@H]21`, the IC50 in test [1], in test [2] and in test [3] was over 80 µM in each case.

Regarding `COC(=O)C1=CO[C@@H](O[C@@H]2O[C@H](CO)[C@@H](O)[C@H](O)[C@H]2O)[C@@H]2[C@@H]3CN4CCc5c([nH]c6ccccc56)[C@]4(C[C@H]12)O3`, the IC50 in test [1], in test [2] and in test [3] was over 80 µM throughout.

In the case of `COC(=O)C1=CO[C@@H](O[C@@H]2O[C@H](CO)[C@@H](O)[C@H](O)[C@H]2O)[C@@H]2[C@H](O)CN3CCc4c([nH]c5ccccc45)[C@@H]3C[C@H]12`, the half-maximal inhibitory concentration (IC50) in test [1], in test [2] and in test [3] was over 80 µM in each case.

Consider `C=C[C@H]1[C@H](O[C@@H]2O[C@H](CO)[C@@H](O)[C@H](O)[C@H]2O[C@@H]2O[C@H](CO)[C@@H](O)[C@H](O)[C@H]2O)OC=C2C(=O)N3CC[C@@]4(C(=O)Nc5cc(O)ccc54)[C@H]3C[C@H]21`, for which the IC50 in test [1], in test [2] and in test [3] was over 80 µM throughout.

As to `COC(=O)C1=CO[C@@H](O[C@@H]2O[C@H](CO)[C@@H](O)[C@H](O)[C@H]2O)[C@H]2[C@@H]1C[C@@H]1N(CC[C@]13C(=O)Nc1ccccc13)C[C@@H]2O`, the half-inhibitory concentration (IC50) in test [1], in test [2] and in test [3] was over 80 µM in each case.

In the case of `C=C[C@H]1[C@H](O[C@@H]2O[C@H](CO)[C@@H](O)[C@H](O)[C@H]2O[C@@H]2O[C@H](CO)[C@@H](O)[C@H](O)[C@H]2O)OC=C2C(=O)N3Cc4c([nH]c5cc(O)ccc5c4=O)[C@H]3C[C@H]21`, the IC50 in test [1], in test [2] and in test [3] was over 80 µM each time.

As to `C=C[C@H]1CN2CC[C@]3(C(=O)Nc4ccccc43)[C@@H]2C[C@@H]1/C(=C/OC)C(=O)O[C@@H]1O[C@H](CO)[C@@H](O)[C@H](O)[C@H]1O`, the IC50 in test [1], in test [2] and in test [3] was over 80 µM in each case.

Take `C=C[C@H]1[C@H](O[C@@H]2O[C@H](CO)[C@@H](O)[C@H](O)[C@H]2O[C@@H]2O[C@H](CO)[C@@H](O)[C@H](O)[C@H]2O)OC=C2C(=O)N3CCc4c([nH]c5cc(O[C@@H]6O[C@H](CO)[C@@H](O)[C@H](O)[C@H]6O)ccc45)[C@H]3C[C@H]21`: the IC50 in test [1], in test [2] and in test [3] was over 80 µM each time.

In the case of `COC(=O)C1=CO[C@@H](O[C@@H]2O[C@H](CO)[C@@H](O)[C@H](O)[C@H]2O)[C@H]2[C@@H]1C[C@@H]1c3[nH]c4ccccc4c3CCN1[C@H]2CO`, the IC50 in test [1], in test [2] and in test [3] was over 80 µM throughout.

For `C=C[C@H]1CN2CC[C@@]3(C(=O)Nc4ccccc43)[C@@H]2C[C@@H]1/C(=C/OC)C(=O)O[C@@H]1O[C@H](CO)[C@@H](O)[C@H](O)[C@H]1O`, the IC50 in test [1], in test [2] and in test [3] was over 80 µM each time.

As for `C=C[C@H]1[C@H](O[C@@H]2O[C@H](CO)[C@@H](O)[C@H](O)[C@H]2O)OC=C2C(=O)N3CCc4c([nH]c5cc(O)ccc45)[C@H]3C[C@H]21`, the IC50 in test [1], in test [2] and in test [3] was over 80 µM each time.

As to `C=C[C@H]1[C@H](O[C@@H]2O[C@H](CO)[C@@H](O)[C@H](O)[C@H]2O[C@@H]2O[C@H](CO)[C@@H](O)[C@H](O)[C@H]2O)OC=C2C(=O)N3CC[C@]4(C(=O)Nc5cc(O)ccc54)[C@H]3C[C@H]21`, the IC50 in test [1], in test [2] and in test [3] was over 80 µM in each case.

Regarding `COc1cccc2c1C(=O)c1c(O)c3c(c(O)c1C2=O)C[C@@](O)(C(=O)CO)C[C@@H]3O[C@H]1C[C@H](N)[C@H](O)[C@H](C)O1` [DOXORUBICIN HYDROCHLORIDE], the IC50 in test [1], in test [2] and in test [3] was under 1 µM in each case.

Turning to `C=CC1C(C[C@@H]2NCCc3c2[nH]c2ccccc32)C(C(=O)O)=CO[C@H]1O[C@@H]1O[C@H](CO)[C@@H](O)[C@H](O)[C@H]1O` (some centres undefined) [STRICTOSIDINIC ACID], the IC50 in test [1], in test [2] and in test [3] was over 80 µM in each case.
